How the values were obtained:
TNF-α = experiment: Mouse TNF alpha quantification assay, LPS-stimulated RAW 264.7 macrophages; format: cell-based; settings: for inhibition at 30 µM: RAW264.7, 30 μM, LPS-stimulated RAW 264.7 macrophages
Procedure: (§1) Cell lines: Abelson murine leukemia virus transformed macrophage cell line RAW 264.7 was purchased from ATCC and grown in complete DMEM-High Glucose medium supplemented with penicillin (100 U/mL), streptomycin (100 μg/mL), and 10% heat-inactivated FBS at 37° C. in a humidified incubator with 5% CO2.
(§2) Method: Cells were plated at 25000-40000 cells/well density in a 96-well plate. After a 3-hour incubation, macrophages were starved with DMEM plus 0.5% FBS overnight. The next day the small molecules to be tested were added to the cells in the final concentration of 30 μM (with 0.3% DMSO) 3 hours prior to LPS stimulation (100 ng/ml). After LPS stimulation cells were incubated at 37° C. for 16 h. Alternatively, compounds were also tested at 10 μM and LPS (100 ng/ml) was added concurrently and incubated 5 hours at 37° C. At the end of the incubation periods, culture medium was collected and production of LPS-induced TNF-α and IL-6 cytokine was measured using ELISA detection kits.
(§3) Sandwich ELISA: The ELISA Immunoassays Quantikine Mouse TNF-alpha (catalog number MTA00B) and IL6 (catalog number M6000B) were purchased from R&D Systems Inc., Minneapolis, MN. These 4.5 hours solid phase ELISAs were used to measure mouse TNF-α or IL-6 levels in macrophages culture supernatants. Assays were executed according to the manufacturer specifications.

IL-6 = experiment: Mouse IL6 quantification assay, LPS-stimulated RAW 264.7 macrophages; format: cell-based; settings: for inhibition at 30 µM: RAW264.7, 30 μM, LPS-stimulated RAW 264.7 macrophages
Procedure: as §1, §2, §3

SMILES | inhibition at 30 µM (TNF-α) [%] | inhibition at 30 µM (IL-6) [%] | inhibition at 10 µM (TNF-α; RAW264.7, 10 μM, LPS (100 ng/ml) added concurrently, 5 hours, RAW 264.7, read-out: TNFα % Inhibition) [%] | inhibition at 10 µM (IL-6; RAW264.7, 10 μM, LPS (100 ng/ml) added concurrently, 5 hours, RAW 264.7) [%]
Oc1nc(-c2ccccn2)nc(CN2CCc3ccccc3C2)c1O | 0 | 0 | – | –
Cn1ccc(-c2sc3nc(-c4nccn4C)nc(N[C@@H]4CC[C@H](O)C4)c3c2-c2ccccc2)n1 (racemic) [drawing 774] | – | – | 1 to 25 | 26 to 50
COc1cccc(-c2csc3c(O)nc(-c4nccn4C)nc23)c1Cl [drawing 663] | 26 to 50 | 76 to 100 | – | –
Cn1ccnc1-c1nc(O)c2scc(-c3ccccn3)c2n1 [drawing 664] | 76 to 100 | 76 to 100 | – | –
Oc1nc(-c2ncc3n2CCCC3)nc2c(-c3ccccn3)csc12 [drawing 665] | 51 to 75 | 76 to 100 | – | –
Oc1nc(-c2cn3ccccc3n2)nc2c(-c3ccccn3)csc12 [drawing 666] | 76 to 100 | 76 to 100 | – | –
COCCn1ccnc1-c1nc(O)c2scc(-c3ccccn3)c2n1 [drawing 667] | 76 to 100 | 76 to 100 | – | –
Cc1cc(Cn2ccnc2-c2nc(O)c3scc(-c4ccccn4)c3n2)on1 [drawing 668] | 51 to 75 | 76 to 100 | – | –
Oc1nc(-c2nccn2Cc2ccccn2)nc2c(-c3ccccn3)csc12 [drawing 669] | 51 to 75 | 76 to 100 | – | –
COc1cccc(Cn2ccnc2-c2nc(O)c3scc(-c4ccccn4)c3n2)c1 [drawing 670] | 76 to 100 | 76 to 100 | – | –
Cc1cnc(-c2nc(O)c3scc(-c4ccccn4)c3n2)n1C [drawing 671] | 76 to 100 | 76 to 100 | – | –
Cc1cn(C)c(-c2nc(O)c3scc(-c4ccccn4)c3n2)n1 [drawing 672] | 76 to 100 | 76 to 100 | – | –
Oc1nc(-c2ncc3ccccn23)nc2c(-c3ccccn3)csc12 [drawing 673] | 76 to 100 | 76 to 100 | – | –
Oc1nc(-c2cn3cccnc3n2)nc2c(-c3ccccn3)csc12 [drawing 674] | 0 | 0 | – | –
Oc1nc(-c2cn(-c3ccccc3)cn2)nc2c(-c3ccccn3)csc12 [drawing 675] | 0 | 76 to 100 | – | –
COc1ccc(Cn2cnc(-c3nc(O)c4scc(-c5ccccn5)c4n3)c2)cc1 [drawing 676] | 1 to 25 | 76 to 100 | – | –
COCCCNc1nc(-c2nccn2C)nc2sc(-c3ccn(C)n3)c(-c3ccccc3)c12 [drawing 677] | 76 to 100 | 76 to 100 | – | –
COCCCN(C)c1nc(-c2nccn2C)nc2sc(-c3ccn(C)n3)c(-c3ccccc3)c12 [drawing 678] | 51 to 75 | 1 to 25 | – | –
COCC(C)Nc1nc(-c2nccn2C)nc2sc(-c3ccn(C)n3)c(-c3ccccc3)c12 (centres unmarked) [drawing 679] | 76 to 100 | 76 to 100 | – | –
COC1CCN(c2nc(-c3nccn3C)nc3sc(-c4ccn(C)n4)c(-c4ccccc4)c23)C1 (centres unmarked) [drawing 680] | 1 to 25 | 26 to 50 | – | –
Cn1ccc(-c2sc3nc(-c4nccn4C)nc(NC4CCOCC4)c3c2-c2ccccc2)n1 [drawing 681] | 1 to 25 | 26 to 50 | – | –
Cn1ccc(-c2sc3nc(-c4nccn4C)nc(NCC4CCOC4)c3c2-c2ccccc2)n1 (centres unmarked) [drawing 682] | 76 to 100 | 76 to 100 | – | –
CO[C@H]1CCC(Nc2nc(-c3nccn3C)nc3sc(-c4ccn(C)n4)c(-c4ccccc4)c23)C1 (some centres unmarked) [drawing 683] | 76 to 100 | 76 to 100 | – | –
CO[C@@H]1CCC(Nc2nc(-c3nccn3C)nc3sc(-c4ccn(C)n4)c(-c4ccccc4)c23)C1 (some centres unmarked) [drawing 684] | 76 to 100 | 76 to 100 | – | –
COCC1CCN(c2nc(-c3nccn3C)nc3sc(-c4ccn(C)n4)c(-c4ccccc4)c23)C1 (centres unmarked) [drawing 685] | 76 to 100 | 76 to 100 | – | –
Cn1ccc(-c2sc3nc(-c4nccn4C)nc(N4CCC5(CCOC5)C4)c3c2-c2ccccc2)n1 (centres unmarked) [drawing 686] | 0 | 51 to 75 | – | –
COC1CCN(c2nc(-c3nccn3C)nc3sc(-c4ccn(C)n4)c(-c4ccccc4)c23)CC1 [drawing 687] | 26 to 50 | 26 to 50 | – | –
COCCCNc1nc(-c2nccn2C)nc2sc(-c3ccn(C)n3)c(-c3ccc(OC)cc3)c12 [drawing 688] | 0 | 76 to 100 | – | –

SMILES | inhibition at 30 µM (TNF-α) [%] | inhibition at 30 µM (IL-6) [%] | inhibition at 10 µM (TNF-α; RAW264.7, 10 μM, LPS (100 ng/ml) added concurrently, 5 hours, RAW 264.7, read-out: TNFα % Inhibition) [%] | inhibition at 10 µM (IL-6; RAW264.7, 10 μM, LPS (100 ng/ml) added concurrently, 5 hours, RAW 264.7) [%]
COCC(C)Nc1nc(-c2nccn2C)nc2sc(-c3ccn(C)n3)c(-c3ccc(OC)cc3)c12 (centres unmarked) [drawing 689] | 0 | 76 to 100 | – | –
COc1ccc(-c2c(-c3ccn(C)n3)sc3nc(-c4nccn4C)nc(N4CCC(OC)C4)c23)cc1 (centres unmarked) [drawing 690] | 0 | 1 to 25 | – | –
COCC(C)Nc1nc(-c2nccn2C)nc2sc(-c3ccccc3Cl)c(-c3cscn3)c12 (centres unmarked) [drawing 691] | 76 to 100 | 76 to 100 | – | –
COC1CCN(c2nc(-c3nccn3C)nc3sc(-c4ccccc4Cl)c(-c4cscn4)c23)C1 (centres unmarked) [drawing 692] | 0 | 51 to 75 | – | –
COCC(C)Nc1nc(-c2nccn2C)nc2sc(-c3cccc(OC)c3)c(-c3cscn3)c12 (centres unmarked) [drawing 693] | 26 to 50 | 26 to 50 | – | –
COc1cccc(-c2sc3nc(-c4nccn4C)nc(N4CCC(OC)C4)c3c2-c2cscn2)c1 (centres unmarked) [drawing 694] | 1 to 25 | 1 to 25 | – | –
COCCNc1nc(-c2nccn2C)nc2sc(-c3ccccc3Cl)c(-c3ccc(OC)cc3)c12 [drawing 695] | 0 | 26 to 50 | – | –
COCCNc1nc(-c2nccn2C)nc2sc(-c3cccc(OC)c3)c(-c3ccc(OC)cc3)c12 [drawing 696] | 76 to 100 | 76 to 100 | – | –
COCCNc1nc(-c2nccn2C)nc2sc(-c3cccc(OC)c3Cl)c(-c3ccc(OC)cc3)c12 [drawing 697] | 0 | 26 to 50 | – | –
COCCNc1nc(-c2nccn2C)nc2sc(-c3cc(OC)ccc3Cl)c(-c3ccc(OC)cc3)c12 [drawing 698] | 26 to 50 | 51 to 75 | – | –
COCCNc1nc(-c2cn(C)cn2)nc2sc(-c3ccccc3Cl)c(-c3ccc(OC)cc3)c12 [drawing 699] | 76 to 100 | 76 to 100 | – | –
COCCNc1nc(-c2nccn2C)nc2sc(-c3cccc(OC)c3Cl)c(-c3ccccc3)c12 [drawing 700] | 76 to 100 | 76 to 100 | – | –
COCCNc1nc(-c2nccn2C)nc2sc(-c3cc(OC)ccc3Cl)c(-c3ccccc3)c12 [drawing 701] | 1 to 25 | 51 to 75 | – | –
COc1cc(-c2sc3nc(-c4nccn4C)nc(N4CCC(OC)C4)c3c2-c2ccccc2)ccn1 (centres unmarked) [drawing 702] | 76 to 100 | 76 to 100 | – | –
COC1CCN(c2nc(-c3nccn3C)nc3sc(-c4ccnn4C)c(-c4ccccc4)c23)C1 (centres unmarked) [drawing 703] | 0 | 26 to 50 | – | –
COC1CCN(c2nc(-c3nccn3C)nc3sc(-c4cccnc4)c(-c4ccccc4)c23)C1 (centres unmarked) [drawing 704] | 76 to 100 | 76 to 100 | – | –
COc1ccc(-c2sc3nc(-c4nccn4C)nc(N4CCC(OC)C4)c3c2-c2ccccc2)cn1 (centres unmarked) [drawing 705] | 76 to 100 | 76 to 100 | – | –
COc1ncccc1-c1sc2nc(-c3nccn3C)nc(N3CCC(OC)C3)c2c1-c1ccccc1 (centres unmarked) [drawing 706] | 76 to 100 | 76 to 100 | – | –
COC1CCN(c2nc(-c3nccn3C)nc3sc(-c4cnc(C5CC5)o4)c(-c4ccccc4)c23)C1 (centres unmarked) [drawing 707] | 26 to 50 | 76 to 100 | – | –
COCCn1cc(-c2sc3nc(-c4nccn4C)nc(N4CCC(OC)C4)c3c2-c2ccccc2)cn1 (centres unmarked) [drawing 708] | 76 to 100 | 76 to 100 | – | –
COC1CCN(c2nc(-c3nccn3C)nc3sc(-c4ccncc4C)c(-c4ccccc4)c23)C1 (centres unmarked) [drawing 709] | 26 to 50 | 76 to 100 | – | –
COC1CCN(c2nc(-c3nccn3C)nc3sc(-c4cnn(C)c4)c(-c4ccccc4)c23)C1 (centres unmarked) [drawing 710] | 51 to 75 | 26 to 50 | – | –
COC1CCN(c2nc(-c3nccn3C)nc3sc(-c4ccc(CO)cc4)c(-c4ccccc4)c23)C1 (centres unmarked) [drawing 711] | 76 to 100 | 76 to 100 | – | –
COC1CCN(c2nc(-c3nccn3C)nc3sc(-c4ccc(N)nc4C)c(-c4ccccc4)c23)C1 (centres unmarked) [drawing 712] | 0 | 1 to 25 | – | –
COC1CCN(c2nc(-c3nccn3C)nc3sc(-c4ccccc4CO)c(-c4ccccc4)c23)C1 (centres unmarked) [drawing 713] | 76 to 100 | 76 to 100 | – | –
COc1nscc1-c1sc2nc(-c3nccn3C)nc(N3CCC(OC)C3)c2c1-c1ccccc1 (centres unmarked) [drawing 714] | 76 to 100 | 76 to 100 | – | –
COC1CCN(c2nc(-c3nccn3C)nc3sc(-c4ccnc(N(C)C)c4)c(-c4ccccc4)c23)C1 (centres unmarked) [drawing 715] | 76 to 100 | 76 to 100 | – | –

Source: patent US20250296938A1, “Compounds that Interact with the Ras Superfamily for the Treatment of Cancers, Inflammatory Diseases, Rasopathies, and Fibrotic Disease” (SHY Therapeutics, LLC, priority 2018, published 2025)
